Source: paper PMC3509527, “Leucettamols, Bifunctionalized Marine Sphingoids, Act as Modulators of TRPA1 and TRPM8 Channels” (Marine Drugs, 2012)

What was measured:
Type in all cases: cell-based
rat TRPM8 channel = biological target: T1, rat TRPM8 channel (Rattus norvegicus, UniProt Q8R455); experiment: Inhibition of icilin-induced [Ca2+]i elevation in TRPM8-HEK-293 cells; details: 5-min preincubation, against icilin 0.25 μM
T1 construct: expressed in transfected cells; host or cells: HEK-293
Description: (§1) Assays of TRP-mediated elevation of intracellular [Ca^2+] were performed as previously described. In the current study we have used wild-type HEK293 cells, cells stably expressing rat TRPA1 or human TRPV1 or rat TRPM8. HEK-293 cells stably over-expressing recombinant rat TRPA1, rat TRPM8 or human TRPV1 were selected by G-418 (Geneticin; 600 μg·mL^−1), grown on 100 mm diameter Petri dishes as monolayers in minimum essential medium supplemented with non-essential amino acids, 10% fetal bovine serum and 2 mM glutamine, and maintained under 5% CO2 at 37 °C. Stable expression of each channel was confirmed by real time quantitative PCR (not shown). On the day of the experiment, the cells were loaded for 1 h at 25 °C with the cytoplasmic calcium indicator Fluo-4AM (Invitrogen Carlsbad, CA, USA) 4 μM in DMSO containing 0.02% Pluronic F-127 (Invitrogen, Carlsbad, CA, USA). After loading, cells were washed twice in Tyrode’s buffer (145 mM NaCl, 2.5 mM KCl, 1.5 mM CaCl2, 1.2 mM MgCl2, 10 mM D-glucose and 10 mM HEPES, pH 7.4), re-suspended in the same buffer, and transferred to the quartz cuvette of the spectrofluorimeter (λex = 488 nm; λem = 516 nm) (Perkin-Elmer LS50B equipped with PTP-1 Fluorescence Peltier System; Perkin-Elmer Life and Analytical Sciences, Waltham, MA, USA) under continuous stirring. About 100,000 cells were used for each data point. Experiments were carried out at 22 °C by measuring cell fluorescence before and after the addition of various concentrations of test compounds. The values of the effect on [Ca^2+]i in wild-type (i.e., not transfected with any construct) HEK-293 cells were taken as baselines and subtracted from the values obtained from transfected cells. The potency of test compounds (EC50 values) was determined as the concentration of test substances required to produce half-maximal increases in [Ca^2+]i. The efficacy of the agonists on TRPA1 is expressed as a percentage of the effect obtained with 100 μM allylisothiocyanate (AITC). Antagonist/desensitizing behaviour was evaluated against icilin (0.25 μM) for TRPM8 and AITC (100 μM) for TRPA1 by adding the compounds in the quartz cuvette 5 min before stimulation of cells with agonists. Data are expressed as the concentration exerting a half-maximal inhibition of agonist effect (IC50). All determinations were at least performed in triplicate. Dose-response curves were fitted by a sigmoidal regression with variable slope. Curve fitting and parameter estimation were performed with GraphPad Prism (GraphPad Software Inc., San Diego, CA, USA).

rat TRPA1 channel [1] = biological target: T2, rat TRPA1 channel (Rattus norvegicus, UniProt Q6RI86); experiment: TRPA1 desensitization/inhibition of AITC-induced [Ca2+]i elevation in TRPA1-HEK-293 cells; details: 5-min preincubation, against AITC 100 μM
T2 construct: expressed in transfected cells; host or cells: HEK-293
Description: as §1, with “Stable expression of each channel was confirmed by real time quantitative PCR (not shown).” left out

rat TRPA1 channel [2] = biological target: T2, rat TRPA1 channel; experiment: TRPA1 activation, fluorometric intracellular [Ca2+]i in TRPA1-HEK293 cells; details: for Efficacy TRPA1 (% AITC 100 μM) / EC50: rat TRPA1-HEK293 cells; for EC50: read-out: Potency EC50 TRPA1
Description: as §1, with “Stable expression of each channel was confirmed by real time quantitative PCR (not shown).” left out

[3] = biological target: T3, human recombinant TRPV1 channel (Homo sapiens, UniProt Q8NER1); experiment: Elevation of intracellular Ca2+ in HEK-293 cells stably transfected with TRPV1; details: at 10 μM
T3 construct: expressed in transfected cells; host or cells: HEK-293
Description: Assays of TRP-mediated elevation of intracellular [Ca^2+] were performed as previously described. In the current study we have used wild-type HEK293 cells, cells stably expressing rat TRPA1 or human TRPV1 or rat TRPM8. HEK-293 cells stably over-expressing recombinant rat TRPA1, rat TRPM8 or human TRPV1 were selected by G-418 (Geneticin; 600 μg·mL^−1), grown on 100 mm diameter Petri dishes as monolayers in minimum essential medium supplemented with non-essential amino acids, 10% fetal bovine serum and 2 mM glutamine, and maintained under 5% CO2 at 37 °C. […] After loading, cells were washed twice in Tyrode’s buffer (145 mM NaCl, 2.5 mM KCl, 1.5 mM CaCl2, 1.2 mM MgCl2, 10 mM D-glucose and 10 mM HEPES, pH 7.4), re-suspended in the same buffer, and transferred to the quartz cuvette of the spectrofluorimeter (λex = 488 nm; λem = 516 nm) (Perkin-Elmer LS50B equipped with PTP-1 Fluorescence Peltier System; Perkin-Elmer Life and Analytical Sciences, Waltham, MA, USA) under continuous stirring. […] Experiments were carried out at 22 °C by measuring cell fluorescence before and after the addition of various concentrations of test compounds. […] The potency of test compounds (EC50 values) was determined as the concentration of test substances required to produce half-maximal increases in [Ca^2+]i. […] Data are expressed as the concentration exerting a half-maximal inhibition of agonist effect (IC50). […]

T1 sequence (Q8R455 whole entry): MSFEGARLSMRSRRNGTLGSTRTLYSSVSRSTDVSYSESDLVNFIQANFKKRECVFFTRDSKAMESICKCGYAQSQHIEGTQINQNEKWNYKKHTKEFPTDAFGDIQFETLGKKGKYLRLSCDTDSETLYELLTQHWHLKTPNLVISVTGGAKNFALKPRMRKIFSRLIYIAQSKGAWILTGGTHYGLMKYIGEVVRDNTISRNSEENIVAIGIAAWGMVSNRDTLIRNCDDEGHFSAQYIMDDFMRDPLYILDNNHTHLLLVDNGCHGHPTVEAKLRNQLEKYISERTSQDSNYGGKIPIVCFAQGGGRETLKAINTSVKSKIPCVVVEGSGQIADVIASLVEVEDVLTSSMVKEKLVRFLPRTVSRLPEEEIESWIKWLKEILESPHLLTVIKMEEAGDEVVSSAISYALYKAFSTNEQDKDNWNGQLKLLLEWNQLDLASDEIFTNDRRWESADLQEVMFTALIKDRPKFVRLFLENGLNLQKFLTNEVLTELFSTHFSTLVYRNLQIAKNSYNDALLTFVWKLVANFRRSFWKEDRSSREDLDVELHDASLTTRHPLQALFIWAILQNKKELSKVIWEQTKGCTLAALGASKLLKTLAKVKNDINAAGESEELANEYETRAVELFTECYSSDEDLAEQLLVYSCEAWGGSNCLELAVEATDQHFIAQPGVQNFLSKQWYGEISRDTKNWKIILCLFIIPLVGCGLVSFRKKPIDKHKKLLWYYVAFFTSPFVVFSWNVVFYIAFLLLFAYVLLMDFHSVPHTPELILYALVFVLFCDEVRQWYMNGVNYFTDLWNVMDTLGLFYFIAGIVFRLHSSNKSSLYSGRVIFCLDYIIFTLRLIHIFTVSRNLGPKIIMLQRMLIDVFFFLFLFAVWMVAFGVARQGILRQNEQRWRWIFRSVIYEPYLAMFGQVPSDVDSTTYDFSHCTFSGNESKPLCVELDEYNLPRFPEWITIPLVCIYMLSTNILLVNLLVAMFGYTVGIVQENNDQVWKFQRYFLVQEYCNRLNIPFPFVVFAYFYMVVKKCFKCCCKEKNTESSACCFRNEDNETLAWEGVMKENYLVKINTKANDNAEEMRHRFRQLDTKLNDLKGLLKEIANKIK
T2 sequence (Q6RI86 whole entry): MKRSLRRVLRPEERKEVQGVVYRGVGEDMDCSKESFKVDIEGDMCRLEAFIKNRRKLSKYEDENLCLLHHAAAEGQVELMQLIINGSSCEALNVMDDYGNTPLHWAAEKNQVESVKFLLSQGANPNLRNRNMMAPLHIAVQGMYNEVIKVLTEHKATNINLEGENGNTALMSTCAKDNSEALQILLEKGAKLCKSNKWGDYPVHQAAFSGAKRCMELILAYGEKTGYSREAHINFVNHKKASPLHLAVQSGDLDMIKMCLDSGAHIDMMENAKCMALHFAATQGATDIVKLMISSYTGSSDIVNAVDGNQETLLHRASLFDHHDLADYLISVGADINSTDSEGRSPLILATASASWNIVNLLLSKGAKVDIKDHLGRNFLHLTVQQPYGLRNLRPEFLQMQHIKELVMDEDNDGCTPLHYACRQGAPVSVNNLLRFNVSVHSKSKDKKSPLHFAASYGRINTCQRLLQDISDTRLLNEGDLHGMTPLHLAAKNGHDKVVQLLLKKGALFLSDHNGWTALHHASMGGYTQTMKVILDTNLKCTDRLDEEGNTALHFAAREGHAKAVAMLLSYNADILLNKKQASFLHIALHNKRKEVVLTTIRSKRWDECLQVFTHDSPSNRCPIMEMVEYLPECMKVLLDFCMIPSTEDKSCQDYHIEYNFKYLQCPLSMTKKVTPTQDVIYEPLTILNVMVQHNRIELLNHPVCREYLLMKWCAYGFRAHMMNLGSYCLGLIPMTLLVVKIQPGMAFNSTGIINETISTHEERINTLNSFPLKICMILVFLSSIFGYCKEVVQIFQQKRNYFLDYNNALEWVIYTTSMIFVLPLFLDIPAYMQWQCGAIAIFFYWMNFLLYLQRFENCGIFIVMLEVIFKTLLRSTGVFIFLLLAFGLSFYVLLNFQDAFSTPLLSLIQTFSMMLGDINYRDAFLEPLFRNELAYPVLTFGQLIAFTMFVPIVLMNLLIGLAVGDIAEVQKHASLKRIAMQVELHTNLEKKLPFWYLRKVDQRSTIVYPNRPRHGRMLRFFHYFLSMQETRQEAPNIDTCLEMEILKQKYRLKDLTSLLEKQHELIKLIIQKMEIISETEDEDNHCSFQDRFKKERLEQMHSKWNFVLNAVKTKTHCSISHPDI
T3 sequence (Q8NER1 whole entry): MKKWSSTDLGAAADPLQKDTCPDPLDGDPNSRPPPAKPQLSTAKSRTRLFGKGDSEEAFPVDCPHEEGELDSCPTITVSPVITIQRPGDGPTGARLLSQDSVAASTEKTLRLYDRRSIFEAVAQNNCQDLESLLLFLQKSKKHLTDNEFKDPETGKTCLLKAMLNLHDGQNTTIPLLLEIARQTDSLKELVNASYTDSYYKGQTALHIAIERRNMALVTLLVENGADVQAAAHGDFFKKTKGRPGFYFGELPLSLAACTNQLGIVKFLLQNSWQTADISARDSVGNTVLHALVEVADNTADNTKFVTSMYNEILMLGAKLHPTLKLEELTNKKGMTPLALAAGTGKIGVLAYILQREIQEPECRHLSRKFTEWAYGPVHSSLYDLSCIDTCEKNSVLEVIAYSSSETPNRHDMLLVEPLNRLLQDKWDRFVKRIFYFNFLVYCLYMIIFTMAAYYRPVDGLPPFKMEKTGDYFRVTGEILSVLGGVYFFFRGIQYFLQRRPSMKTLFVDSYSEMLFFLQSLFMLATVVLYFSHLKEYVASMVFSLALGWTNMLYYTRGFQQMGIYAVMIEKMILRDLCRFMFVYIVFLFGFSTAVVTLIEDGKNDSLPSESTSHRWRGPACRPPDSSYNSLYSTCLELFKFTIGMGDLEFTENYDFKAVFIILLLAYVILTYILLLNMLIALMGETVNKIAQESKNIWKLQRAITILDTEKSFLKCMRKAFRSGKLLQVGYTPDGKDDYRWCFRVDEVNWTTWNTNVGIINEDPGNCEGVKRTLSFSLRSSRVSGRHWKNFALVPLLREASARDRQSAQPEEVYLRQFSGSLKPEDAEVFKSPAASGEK

Row | Compound | IC50 (rat TRPM8 channel) [µM] | IC50 (rat TRPA1 channel [1]) [µM] | Reduction of efficacy at TRPA1 versus parent compound 1 (rat TRPA1 channel [2]) [%] | Efficacy TRPA1 (% AITC 100 μM) (rat TRPA1 channel [2]) | EC50 (rat TRPA1 channel [2]) [µM] | Efficacy TRPV1 (% of 4 μM ionomycin) [3]
1 | CC(=O)N[C@H](C)[C@H](C/C=C\C/C=C\C/C=C\C/C=C\C/C=C\C/C=C\CCCCCC[C@H](OC(C)=O)[C@@H](C)NC(C)=O)OC(C)=O [Compound 2] | 44.6 ± 10.1 |  |  |  |  | 
2 | C[C@@H](N)[C@@H](O)CCCCCCCCCCCCCCCCCCCCCCCC[C@H](O)[C@@H](C)N [Compound 5] | 6.5 ± 0.3 | 6.5 ± 0.4 | 30 | 69.2 ± 0.1 | 2.6 ± 0.1 | 
3 | CC(=O)N[C@H](C)[C@H](CCCCCCCCCCCCCCCCCCCCCCCC[C@H](OC(C)=O)[C@@H](C)NC(C)=O)OC(C)=O [Compound 6] | 29 ± 0.6 | 12.7 ± 0.8 |  | 100.0 ± 9.7 | 9.7 ± 3.3 | 
4 | COc1cc(CNC(=O)CCCC/C=C/C(C)C)ccc1O [capsaicin] |  |  |  |  |  | 78.6 ± 2.4 % of 4 μM ionomycin
5 | C[C@@H](N)[C@@H](O)C/C=C\C/C=C\C/C=C\C/C=C\C/C=C\C/C=C\CCCCCC[C@H](O)[C@@H](C)N [Leucettamol A (1), leucettamol A] | 6.5 ± 0.3 | 4.7 ± 0.2 |  | 101.9 ± 12.4 | 3.7 ± 1.7 | 
6 | C[C@@H](N)[C@@H](O)C/C=C\CC(O)/C=C/C=C\C/C=C\C/C=C\C/C=C\CCCCCC[C@H](O)[C@@H](C)N (some centres unmarked) [Leucettamol B (3), leucettamol B] | 6.4 ± 1 | 4.7 ± 0.9 |  | 103.3 ± 10.6 | 5.9 ± 1.9 | 
7 | CC(=O)N[C@H](C)[C@H](C/C=C\CC(/C=C/C=C\C/C=C\C/C=C\C/C=C\CCCCCC[C@H](OC(C)=O)[C@@H](C)NC(C)=O)OC(C)=O)OC(C)=O (some centres unmarked) [Compound 4] | 65.7 ± 8.6 |  |  |  |  | 
